Key:
Assay type in all cases: functional
[1] = Compound was evaluated for growth inhibition of 60 cell lines in NCI screen
[2] = Lethal concentration of compound was evaluated against 60 cell lines in NCI screen
[3] = Compound was evaluated for total growth inhibition of 60 cell lines in NCI screen
CCRF-CEM = assay: Compound was evaluated for growth inhibition of leukemia CCRF-CEM cell line in NCI 60-cell line screen; conditions: Homo sapiens
UACC-257 = assay: Compound was evaluated for growth inhibition of melanoma UACC-257 cell line in NCI 60-cell line screen; conditions: Homo sapiens
HOP-92 = assay: Compound was evaluated for growth inhibition of non-small cell lung HOP-92 cell line in NCI 60-cell line screen; conditions: Homo sapiens
HCT-116 = assay: Compound was evaluated for growth inhibition of colon HCT116 cell line in NCI 60-cell line screen; conditions: Homo sapiens
OVCAR-5 = assay: Compound was evaluated for growth inhibition of ovarian OVCAR-5 cell line in NCI 60-cell line screen; conditions: Homo sapiens
PC-3 = assay: Compound was evaluated for growth inhibition of prostate PC-3 cell line in NCI 60-cell line screen; conditions: Homo sapiens
MCF7 = assay: Compound was evaluated for growth inhibition of breast MCF-7 cell line in NCI 60-cell line screen; conditions: Homo sapiens
RXF 393 = assay: Compound was evaluated for growth inhibition of renal RXF-393 cell line in NCI 60-cell line screen; conditions: Homo sapiens
U-251 = assay: Compound was evaluated for growth inhibition of central nervous system U251 cell line in NCI 60-cell line screen; conditions: Homo sapiens

COc1cc2c(cc1OC)C(=O)N1C=C(/C=C/C(N)=O)C[C@H]1C=N2
GI50 [1]: 53 nM
LC50 (50% lethal concentration) [2]: 69200 nM
TGI [3]: 3720 nM

COC(=O)/C=C/C1=CN2C(=O)c3cc(OC)c(OC)cc3N=C[C@@H]2C1
GI50 [1]: 13 nM
LC50 (50% lethal concentration) [2]: 55000 nM
TGI [3]: 1320 nM

COc1cc2c(cc1OC)C(=O)N1C=C(/C=C/C(=O)N(C)C)C[C@H]1C=N2
GI50 (CCRF-CEM): 0.6 nM
GI50 (UACC-257): 0.25 nM
GI50 (HOP-92): 2.34 nM
GI50 (HCT-116): 11.7 nM
GI50 (OVCAR-5): 3.21 nM
GI50 [1]: 12 nM
LC50 (50% lethal concentration) [2]: 650 nM
GI50 (PC-3): 18.6 nM
TGI [3]: 96 nM
GI50 (MCF7): 7.15 nM
GI50 (RXF 393): 1.65 nM
GI50 (U-251): 3.33 nM

Cc1ccc2c(c1O)NC(O)C1CC(/C=C/C(N)=O)=CN1C2=O (stereo not given) [ANTHRAMYCIN]
GI50 (CCRF-CEM): 20 nM
GI50 (UACC-257): 63.1 nM
GI50 (HOP-92): 20 nM
GI50 (HCT-116): 39.8 nM
GI50 (OVCAR-5): 50.1 nM
GI50 [1]: 29 nM
LC50 (50% lethal concentration) [2]: 12700 nM
GI50 (PC-3): 20 nM
TGI [3]: 610 nM
GI50 (MCF7): 39.8 nM
GI50 (RXF 393): 31.6 nM
GI50 (U-251): 20 nM

From ChEMBL document CHEMBL1137953, “A novel approach to the synthesis of cytotoxic C2-C3 unsaturated pyrrolo[2,1-c]benzodiazepines (PBDs) with conjugated acrylyl C2-substituents” (2004)
